Test results: ChEMBL document CHEMBL5352391, “New structural classes of antimalarials” (Eur J Med Chem, 2022)
≈ marks a conversion by molar mass, not a printed value.

Key:
Plasmodium falciparum [1] = assay: Antiplasmodial activity against Plasmodium falciparum 3D7 assessed as inhibition of parasite growth incubated for 72 hrs by LDH assay based spectrofluorometric analysis; assay type: functional, organism-based; settings: 3D7, 72 h
Plasmodium falciparum [2] = assay: Antiplasmodial activity against erythrocytic stage of Plasmodium falciparum 3D7 assessed as reduction of parasite growth incubated for 100 hrs by SYBR Green dye based fluorescence assay; assay type: functional, organism-based; settings: 3D7, 100 h
Plasmodium falciparum [3] = assay: Antiplasmodial activity against erythrocytic stage of Plasmodium falciparum NF54 assessed as reduction of parasite growth incubated for 48 hrs by [3H]-hypoxanthine incorporation based beta-plate liquid scintillation counting method; assay type: functional, organism-based
Plasmodium falciparum [4] = assay: Antiplasmodial activity against erythrocytic stage of Plasmodium falciparum K1 assessed as reduction of parasite growth incubated for 48 hrs by [3H]-hypoxanthine incorporation based beta-plate liquid scintillation counting method; assay type: functional, organism-based
[5] = Cytotoxicity against human HepG2 cells assessed as reduction in cell viability incubated for 72 hrs by MTT assay; assay type: toxicity, cell-based
[6] = Selectivity index, ratio of CC50 for cytotoxicity against human HepG2 cells by MTT assay to EC50 for antiplasmodial activity against erythrocytic stage of Plasmodium falciparum NF54 by [3H]-hypoxanthine incorporation based liquid scintillation counting method; assay type: toxicity, cell-based; settings: read-out: Ratio CC50/EC50
[7] = Selectivity index, ratio of CC50 for cytotoxicity against human HepG2 cells by MTT assay to EC50 for antiplasmodial activity against erythrocytic stage of Plasmodium falciparum K1 by [3H]-hypoxanthine incorporation based liquid scintillation counting method; assay type: toxicity, cell-based; settings: read-out: Ratio CC50/EC50
Plasmodium berghei = assay: Antimalarial activity against Plasmodium berghei ANKA infected in Swiss albino mouse assessed as reduction in parasitemia at 50 micromol/kg,po administrated for 4 days by Giemsa staining based microscopic analysis; assay type: functional; set-up: scale not given: the % may be the effect or the level left; settings: dose 50 µmol/kg, time 4 day
Plasmodium falciparum [8] = assay: Antiplasmodial activity against mixture of chloroquine resistant Plasmodium falciparum RKL 303-chloroquine sensitive Plasmodium falciparum 3D7 infected in human erythrocyte assessed as inhibition of parasite growth incubated for 48 hrs by Giemsa staining based microscopic analysis; assay type: functional, organism-based
Plasmodium falciparum [9] = assay: Antiplasmodial activity against chloroquine resistant Plasmodium falciparum RKL-2 assessed as inhibition of parasite growth incubated for 36 to 40 hrs by Giemsa staining based microscopic analysis; assay type: functional, organism-based
Plasmodium falciparum [10] = assay: Antiplasmodial activity against chloroquine resistant Plasmodium falciparum K14 assessed as inhibition of parasite growth incubated for 42 hrs by [3H]-hypoxanthine incorporation based microbeta scintillation counting method; assay type: functional, organism-based
Plasmodium falciparum [11] = assay: Antimalarial activity against Plasmodium falciparum 3D7 assessed as inhibition of parasite growth by measuring minimum inhibitory concentration by microassay; assay type: functional
Plasmodium falciparum [12] = assay: Antiplasmodial activity against chloroquine sensitive Plasmodium falciparum GC03 infected in human erythrocyte assessed as inhibition of parasite growth incubated for 48 hrs by SYBR Green dye based fluorescence assay; assay type: functional, organism-based
Plasmodium falciparum [13] = assay: Antimalarial activity against Plasmodium falciparum 3D7 assessed as reduction of parasite growth at 25 uM incubated for 96 hrs by SYBR green I dye based fluorescence assay relative to control; assay type: functional; set-up: scale not given: the % may be the effect or the level left
Plasmodium falciparum [14] = assay: Antimalarial activity against Plasmodium falciparum 3D7 assessed as reduction of parasite growth incubated for 96 hrs by SYBR green I dye based fluorescence assay; assay type: functional, organism-based; settings: 3D7, 96 h
Falcipain 2 = target: T1, Falcipain 2 (Plasmodium falciparum, UniProt Q9N6S8); assay: Inhibition of Plasmodium falciparum recombinant His-tagged falcipain-2 expressed in Escherichia coli assessed as inhibition constant using Cbz-Phe-Arg-AMC as substrate by fluorescence spectrophotometer assay
T1 sequence (Q9N6S8 whole entry): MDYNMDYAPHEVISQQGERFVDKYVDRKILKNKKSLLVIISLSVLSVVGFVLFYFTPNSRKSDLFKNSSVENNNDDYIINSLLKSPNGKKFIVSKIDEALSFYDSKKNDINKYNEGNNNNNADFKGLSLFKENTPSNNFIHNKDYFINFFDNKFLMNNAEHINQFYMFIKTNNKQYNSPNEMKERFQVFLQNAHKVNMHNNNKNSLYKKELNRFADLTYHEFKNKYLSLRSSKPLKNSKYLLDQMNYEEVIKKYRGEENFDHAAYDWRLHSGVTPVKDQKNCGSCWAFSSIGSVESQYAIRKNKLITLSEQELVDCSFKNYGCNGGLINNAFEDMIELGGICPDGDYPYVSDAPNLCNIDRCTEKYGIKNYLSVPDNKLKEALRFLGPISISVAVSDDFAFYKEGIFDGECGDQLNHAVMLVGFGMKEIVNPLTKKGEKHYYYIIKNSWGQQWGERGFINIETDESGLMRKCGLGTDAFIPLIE

Plasmodium falciparum [15] = assay: Antiplasmodial activity against chloroquine resistant Plasmodium falciparum RKL9 infected in human erythrocyte assessed as inhibition of parasite growth incubated for 24 hrs by three fold serial dilution assay; assay type: functional
Plasmodium falciparum [16] = assay: Antiplasmodial activity against chloroquine sensitive Plasmodium falciparum 3D7 assessed as inhibition of parasite growth incubated for 48 hrs by Malstat reagent based spectrophotometric; assay type: functional, organism-based; settings: 3D7, 48 h
Plasmodium falciparum [17] = assay: Antimalarial activity against chloroquine resistant Plasmodium falciparum assessed as inhibition of parasite growth; assay type: functional, organism-based
Plasmodium falciparum [18] = assay: Antiplasmodial activity against chloroquine resistant Plasmodium falciparum K14 assessed as inhibition of parasite growth incubated for 48 hrs by [3H]-hypoxanthine incorporation based microbeta scintillation counting method; assay type: functional, organism-based
[19] = Retention time of the compound by HPLC-MS analysis; assay type: physicochemical
Plasmodium falciparum [20] = assay: Antiplasmodial activity against Plasmodium falciparum K1 infected in human erythrocyte assessed as inhibition of parasite growth incubated for 72 hrs by [3H]-hypoxanthine incorporation based liquid scintillation counting method; assay type: functional, organism-based

Compound: C/C1=C\[C@H](C)C(=O)C[C@@H](O)/C(C)=C/[C@H](C)C[C@@H](C)CC[C@@H]([C@@H](C)C(=O)O)OC(=O)[C@@H](C)C1
- IC50 (Plasmodium falciparum [1]): 123 nM

Compound: CC1(C)C2CC=C(CC(=O)Oc3ccnc4cc(Cl)ccc34)[C@@H]1C2
- EC50 (Plasmodium falciparum [2]): > 50000 nM
- EC50 (Plasmodium falciparum [3]): 23300 nM
- EC50 (Plasmodium falciparum [4]): 164 nM
- CC50 at 72 h [5]: > 160000 nM
- selectivity ratio [6]: 0.7
- selectivity ratio [7]: > 976

Compound: O=Cc1cn(-c2ccc(Cl)cc2)nc1-c1ccccc1
- Activity (Plasmodium berghei): 83%

Compound: COc1ccc(/C=C/C(=O)c2ccc(-n3cnc4ccccc43)cc2)c(OC)c1
- IC50 (Plasmodium falciparum [8]): 1.1 µg/mL (≈ 2.86 µM)

Compound: CCN(Cc1cc(C2(C)OOC(c3ccco3)OO2)ccc1O)c1ccccc1 (centres undefined)
- IC50 (Plasmodium falciparum [9]): 5.3 µg/mL (≈ 13.3 µM)

Compound: Oc1c(/C=N/c2ccccc2/N=C/c2cccc(CN3CCOCC3)c2O)cccc1CN1CCNCC1
- IC50 (Plasmodium falciparum [10]): 2280 nM

Compound: Cc1ccc(C2=C/C(=C/c3cc4cc(C)ccc4nc3Cl)C(=O)O2)cc1
- MIC (Plasmodium falciparum [11]): 50 µg/mL (≈ 138 µM)

Compound: N=C(N)c1ccc(-n2cc(-c3cccc(C(=N)N)c3)nn2)cc1
- IC50 (Plasmodium falciparum [12]): 440 nM

Compound: COC(=O)[C@H](Cc1ccc(O)c(-c2ccc(F)cc2)c1)NC(=O)C(=O)c1c[nH]c2ccccc12
- Activity (Plasmodium falciparum [13]): 60%
- EC50 (Plasmodium falciparum [14]): 1300 nM

Compound: Oc1ccc(/N=C/c2cccc(CN3CCOCC3)c2O)cc1
- IC50 (Plasmodium falciparum [10]): 2280 nM

Compound: Cc1ccc(-n2cc(C(=O)O)c(-c3ccccc3)n2)cc1
- Activity (Plasmodium berghei): 95%

Compound: COc1ccc2nc(Cl)c(/C=C3/C=C(c4ccc(C)cc4C)OC3=O)cc2c1
- MIC (Plasmodium falciparum [11]): 10 µg/mL (≈ 25.5 µM)

Compound: C/C1=C\[C@H](C)CCC(=O)/C(C)=C/[C@H](C)C[C@@H](C)CC[C@@H]([C@@H](C)C(=O)O)OC(=O)[C@@H](C)C1
- IC50 (Plasmodium falciparum [1]): 9810 nM

Compound: N=C(NC(=O)OCc1ccccc1)NC(=O)c1ccc(C(=O)OCc2ccccc2)o1
- Ki (Falcipain 2): 2690 nM

Compound: COc1ccc(/C=N/NC(=O)c2ccncc2)cc1O
- inhibition (INH) (Plasmodium falciparum [15]): 91%

Compound: CC(=O)Nc1cc(-c2ccc(F)cc2)cc2cc(-c3ccc(F)cc3)[nH]c12
- IC50 (Plasmodium falciparum [16]): 1430 nM

Compound: C=C[C@H]1CN2CC[C@H]1C[C@H]2[C@H](O)c1ccnc2ccc(OC)cc12 [QUININE]
- IC50 (Plasmodium falciparum [17]): 0.026 µg/mL (≈ 0.0801 µM)

Compound: CCN(Cc1cc(C2(C)OOC(c3ccccc3)OO2)ccc1O)c1ccccc1 (centres undefined)
- IC50 (Plasmodium falciparum [9]): 5.3 µg/mL (≈ 13 µM)

Compound: O=C(N/N=C/c1ccc(O)cc1)c1ccncc1
- inhibition (INH) (Plasmodium falciparum [15]): 90%

Compound: Nc1cc(Cl)c(S(N)(=O)=O)cc1-c1nnc(S)n1-c1ccccc1Cl
- IC50 (Plasmodium falciparum [17]): 0.025 µg/mL (≈ 0.0601 µM)

Compound: COC(=O)[C@H](Cc1ccc(O)c(-c2ccc(C(C)=O)cc2)c1)NC(=O)C(=O)c1c[nH]c2ccccc12
- Activity (Plasmodium falciparum [13]): 60%

Compound: O=C(Nc1ccc([C@@H]2[C@H](Oc3ccc(Cl)cc3Cl)C(=O)N2c2ccc(Cl)cc2)cc1)N1CCOCC1
- IC50 (Plasmodium falciparum [18]): 26000 nM

Compound: Cc1ccc(C2=C/C(=C/c3cc4cc(C)ccc4nc3Cl)C(=O)O2)c(C)c1
- MIC (Plasmodium falciparum [11]): 10 µg/mL (≈ 26.6 µM)

Compound: C[C@H](C[C@H](O)[C@@H](O)C(C)(C)O)C1=C2C[C@H](O)[C@H]3[C@@]4(C)CCC(=O)C(C)(C)[C@@H]4CC[C@]3(C)[C@@]2(C)CC1 [ALISOL A]
- Retention_time [19]: 23 min
- IC50 (Plasmodium falciparum [20]): 13800 nM

Compound: CCN(CC)c1ccc(/N=C/c2cccc(CN3CCOCC3)c2O)cc1
- IC50 (Plasmodium falciparum [10]): 2280 nM

Compound: COC(=O)[C@H](Cc1ccc(O)c(-c2ccc(C(F)(F)F)cc2)c1)NC(=O)C(=O)c1c[nH]c2ccccc12
- Activity (Plasmodium falciparum [13]): 60%

Compound: COC(=O)[C@H](Cc1ccc(O)c(-c2ccc(Cl)cc2)c1)NC(=O)C(=O)c1c[nH]c2ccccc12
- Activity (Plasmodium falciparum [13]): 60%
